Experimental data taken from a melting point compilation (Tetko et al.; mined from patent text by program, amines drawn as free bases though some values may be those of a salt).

Compound | melting point
CC(C)CNC(=O)c1ccc(C(=O)N2CCC[C@@H]3CCCC[C@H]32)cc1N (relative stereo) | 153 to 155 °C
CC[Si](CC)(CC)c1ccccc1S(N)(=O)=O | 85.6 °C
CCOc1nc(NCc2ccco2)nc(Nc2ccc3[nH]cnc3c2)n1 | 110 to 112 °C
CC(=O)Nc1cccc(OC2CCNCC2)c1 | 164 to 165 °C
O=[N+]([O-])c1ccc(-c2nnc3ccc(Cl)nn23)s1 | 215 to 217 °C
CCCCCCCCCc1cc2ccc(C(=O)O)cc2[nH]1 | 166 to 169 °C
NS(=O)(=O)c1cc2c(cc1Cl)C(=O)N(CCN1CCOCC1)C2=O | 218 to 219 °C
COc1cc(Cl)c(CCNCC(O)c2ccccc2)cc1OC (stereo not given) | 110 to 113 °C
CCN(CC(=O)O)c1ccc(C=O)cc1[N+](=O)[O-] | 90 °C
CC(C)(C)OC(=O)C1(ON=C(C(=O)O)c2ccco2)CCCC1 | 107 °C
O=Cc1ccc(Sc2nc3ncccc3[nH]2)o1 | 188 °C
CC(C)(C)c1cc(CCc2cc(F)cc(F)c2NC(=O)NC(C)(C)c2ccc(Cl)c(Cl)c2)cc(C(C)(C)C)c1O | 224 to 226 °C
CC(C)(C)c1cc(C2=NNC(=O)CC2)cc(C(C)(C)C)c1O | 200 to 203 °C
Cc1nnc2ccc(-c3ccc(Cl)c(C(F)(F)F)c3)nn12 | 267 to 269 °C
COC(=O)c1nc2cc(Cn3ccnc3)ccc2[nH]1 | 228 °C
CCOc1cc(C(CS(C)(=O)=O)N2C(=O)c3cccc(N(S(C)(=O)=O)S(C)(=O)=O)c3C2=O)ccc1OC (stereo not given) | 277 to 279 °C
CCCCCCC1(C(=O)NCCC)c2ccccc2Oc2ccccc21 | 76 to 77.5 °C
CCCC(CCC)C(=O)NCC(=O)CCCCCCCCCCCCN(N)C(=O)n1cc(F)c(=O)[nH]c1=O | 116 to 118 °C
Nc1cccc2c1OC1(CC1)C2=O | 136 °C
O=C1c2cccc(Br)c2C(=O)N1CCCn1cncn1 | 113 to 115 °C
CNS(=O)(=O)c1ccc(C2=C(c3ccccc3)C(=O)C(C)(C)O2)cc1Cl | 136 to 137 °C
O=[N+]([O-])c1ccc2oc(-c3cccs3)nc2c1 | 186 to 188 °C
CCCCCCCCCCCCCCCCOCC(CO)CF (stereo not given) | 34 °C
Cc1cnc2cc(N)ccc2n1 | 163 to 164 °C

Compound | melting point
CCC(CC)/C(N)=C(\C)C#N | 150 °C
CCOc1ccc(-c2c(C(=O)OC)c(C(=O)OC)c(O)c3cc(OC)c(OC)c(OC)c23)cc1OC | 159 °C
CC(=O)NC(n1cncn1)C(Cl)(Cl)CCl (stereo not given) | 135 °C
C=CC[C@H](C(N)=O)[C@@H](CC(C)C)C(=O)NC1N=C(c2cccc(OC)c2)c2ccccc2N(C)C1=O (stereo not given in full) | 225 to 230 °C
COc1ccc2ccc(O)c([N+](=O)[O-])c2c1 | 130 to 131 °C
c1ccc(C2(Cc3ccncc3)c3ccccc3-c3sccc32)cc1 (stereo not given) | 88 to 92 °C
O=[N+]([O-])c1cc(CO)ccc1OCc1ccccc1 | 76 to 77 °C
CC1(C)Oc2ccc(C(=O)CN=[N+]=[N-])cc2S1 | 52 to 53 °C
Cc1nccn1-c1nc(-c2ccc(Cl)cc2)c(CCCC2=NCCO2)o1 | 88 to 89 °C
CC(=O)COc1ccc(CC2SC(=O)NC2=O)cc1 (stereo not given) | 158 to 159 °C
CCCCCCC(Oc1ccc(C2=CCCCC2)cc1)C(=O)O (stereo not given) | 70 to 71 °C
COC(=O)C1CCc2cc(C(=O)c3ccccc3)c(OC)cc21 (stereo not given) | 126 to 128 °C
CS(=O)(=O)c1ccc(C2=C(Br)C(=O)C3(CCCCC3)O2)cc1 | 163 to 164 °C
CNC(=S)N(C)Cc1cnc(Cl)s1 | 129 to 131 °C
COc1cc(OC)nc(Sc2c(NC(=O)C(F)(F)F)nc(C)n2C)n1 | 160 to 162 °C
COc1cc2c(sc3nc(C)c(CO)n32)c(OC)c1OC | 196 °C
CC(C)(C)OC(=O)c1ccc(N2CC(CN=[N+]=[N-])OC2=O)cc1F (stereo not given) | 91 to 92 °C
O=C(O)c1ccc(S(=O)(=O)Oc2c(Br)cc(-c3ccc(-c4c(Cc5ccccc5)sc5ccccc45)cc3)cc2Br)cc1O | 192 to 194 °C
CC(=O)N1CCC(C2=C(C#N)C(c3cccc4nonc34)c3c[nH]nc3N2)CC1 (stereo not given) | 248 °C
O=C(O)[C@@H]1C[C@H]2C[C@H](CCS(=O)(=O)O)CC[C@H]2CN1 (racemic) | 265 °C
CSc1c(OCC(=O)O)ccc2c1[nH]c1ccccc12 | 179 to 180 °C
Nc1nc2c(c3c1ncn3Cc1cc(-c3ccc(F)cc3)no1)NCCC2 | 227 to 228 °C
CC(C)(C)OC(=O)C(C#N)=C(NCCCN1CCCCCC1=O)Nc1cc(C(F)(F)F)cc(C(F)(F)F)c1 | 167 to 168 °C

Results, then the compound that gave them:

melting point | Compound
76 to 77.5 °C | Cc1ccc(C(=O)OCCOc2ccc(OC(F)(F)F)cc2)cc1
150 °C | CC(C)(CCCCOc1ccc(NC(=O)CCCn2ccnc2)cc1)C(=O)O
95 to 97 °C | CC(=O)NCCC1CCc2ccc3nc(CCCc4ccccc4)oc3c21 (stereo not given)
167 to 168 °C | COC(=O)c1ccccc1NS(=O)(=O)c1ccc(C(=O)NCCc2ccccc2)cc1
213 to 214 °C | N#Cc1cccc(C2=Nc3ccc(C#Cc4ccccc4F)cc3NC(=O)C2)c1
192 to 193 °C | O=C(O)c1cc(-c2ccc(OCc3ccccc3)cc2OCc2ccccc2)no1
202 °C | N#Cc1c(N)nc2ccc(N3CCN(Cc4ccccc4)CC3)cc2c1NCc1ccccc1
159 to 161 °C | CCOC(=O)c1ccc(-n2nc(C(F)(F)F)cc2-c2ccc(S(C)(=O)=O)cc2)cc1
126 to 130 °C | CC(=O)c1ccc(C2=C(c3ccc(S(C)(=O)=O)cc3)OC3(CCCC3)C2=O)cc1
237 to 239 °C | COc1nc2ccccc2nc1NC(=O)N1CCN(c2c(C)c(C)cc(C)c2C)CC1
130 to 131 °C | Cc1ccc2c(n1)N(CCCN(C)C)c1ccccc1N(C)C2=O
128 to 130 °C | CS(=O)(=O)Nc1cccc(NC(=O)C(=O)N2CCC(Cc3ccccc3)CC2)c1
184 to 186 °C | CCCCc1oc2ccccc2c1-c1ncc(-c2ccc3cc(O)ccc3c2)o1
198 to 199 °C | O=C1Nc2ccccc2N2CCN(c3ccccc3)CCN12
184 to 186 °C | CO/C(=C1/C(C)=C(CC(=O)O)c2cc(F)ccc21)c1ccccc1
165 to 166 °C | O=C(CC1(c2cccc(C(F)(F)F)c2F)CC1)C(=O)Nc1ccc2c(c1)COC2=O
97 to 99 °C | CCOc1cc(C2=NN(c3ccccc3)C(=O)[C@H]3CC=CC[C@@H]23)ccc1OC (relative stereo)
140 to 142 °C | O=C(Nc1ccccc1OCc1ccccc1)c1nnnn1Cc1ccccc1
238 to 240 °C | CCc1cc2c(ccc(=O)n2Cc2ccc(-c3ccccc3C(=O)O)cc2)c(CC)n1
49.8 to 51.3 °C | C[C@H](Cc1ccc(-c2cc(F)cc(F)c2)cc1)c1ccccc1
121 °C | Cc1cccc(C)c1NC(=O)CCN1CCN(CCCC(c2ccc(F)cc2)c2ccc(F)cc2)C(C(N)=O)C1 (stereo not given)
113 to 114 °C | COc1cc(C(=O)c2c(N)sc3c2CCN(Cc2ccccc2)C3)ccc1OC(C)C
200 to 205 °C | O=C(O)CCC(=O)N[C@@H](Cc1ccc(-c2ccccc2)cc1)C(=O)NCCCCNc1ncccn1
